Experimental data from patent publication US20260125686A1, “COMPOSITIONS AND METHODS FOR MODULATION OF CFTR” (Cystic Fibrosis Foundation, priority 2022, published 2026).

How the values were obtained:
Assay type in all cases: cell-based
Exon 22 truncated CFTR [1] = target: T1, Exon 22 truncated CFTR (Homo sapiens, UniProt P13569); assay: Western blot of de-glycosylated Exon 22 truncated CFTR protein in 16HBEge-W1282X cells; design: contain the first 1239 amino acids of a WT CFTR; endogenous in cells; settings: PNGase F treated
T1 sequence (P13569 with tags, fused parts or gaps): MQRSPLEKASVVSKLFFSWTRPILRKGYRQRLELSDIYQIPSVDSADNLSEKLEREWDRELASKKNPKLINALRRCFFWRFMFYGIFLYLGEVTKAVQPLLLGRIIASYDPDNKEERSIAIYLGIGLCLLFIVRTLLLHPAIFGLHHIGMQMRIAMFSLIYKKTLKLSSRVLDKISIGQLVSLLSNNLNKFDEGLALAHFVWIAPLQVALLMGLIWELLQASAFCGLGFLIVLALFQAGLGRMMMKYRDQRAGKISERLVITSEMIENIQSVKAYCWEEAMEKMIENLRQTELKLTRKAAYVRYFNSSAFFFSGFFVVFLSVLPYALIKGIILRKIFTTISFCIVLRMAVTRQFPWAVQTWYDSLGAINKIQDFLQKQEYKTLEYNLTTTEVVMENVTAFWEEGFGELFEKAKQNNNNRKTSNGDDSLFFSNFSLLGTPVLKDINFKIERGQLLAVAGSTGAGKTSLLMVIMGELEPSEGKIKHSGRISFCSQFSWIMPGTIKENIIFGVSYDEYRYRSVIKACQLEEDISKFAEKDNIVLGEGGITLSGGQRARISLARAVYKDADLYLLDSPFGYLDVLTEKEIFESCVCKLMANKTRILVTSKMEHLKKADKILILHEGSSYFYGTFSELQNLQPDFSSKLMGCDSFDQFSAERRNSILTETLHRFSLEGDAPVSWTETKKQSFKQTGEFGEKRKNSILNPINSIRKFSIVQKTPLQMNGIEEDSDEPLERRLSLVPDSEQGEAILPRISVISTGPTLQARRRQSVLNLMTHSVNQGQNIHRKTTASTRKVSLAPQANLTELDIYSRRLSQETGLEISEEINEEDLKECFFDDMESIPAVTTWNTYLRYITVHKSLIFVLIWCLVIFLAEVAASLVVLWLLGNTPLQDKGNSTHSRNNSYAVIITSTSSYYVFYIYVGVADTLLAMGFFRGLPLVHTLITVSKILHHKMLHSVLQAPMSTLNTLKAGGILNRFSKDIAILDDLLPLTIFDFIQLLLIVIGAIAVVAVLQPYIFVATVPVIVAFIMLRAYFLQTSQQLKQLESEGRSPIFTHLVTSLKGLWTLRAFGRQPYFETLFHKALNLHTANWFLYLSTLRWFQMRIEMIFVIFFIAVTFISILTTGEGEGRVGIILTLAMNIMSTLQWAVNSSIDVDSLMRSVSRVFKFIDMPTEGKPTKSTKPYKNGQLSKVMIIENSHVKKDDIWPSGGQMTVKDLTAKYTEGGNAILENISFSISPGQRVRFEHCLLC
Protocol: Western blot analyses. Western blot analyses were performed as described previously, except the loading control, Na+/K+-ATPase, was detected with an antibody from Santa Cruz Biotechnology (sc-48345). 2.8.1.
Exon 22 truncated CFTR protein expression was assayed using Western blotting, as depicted in FIG. 14. 16HBEge-W1282X cells were treated with exemplary ASO(s) alone or in combination (e.g., SD10; SD10 and SA08), in the presence of drug vehicle or correctors VX-445/661. Prior to electrophoresis and Western blotting, 16HBEge-W1282X cell extracts were treated with PNGase F to remove glycosylation. cDNA of four CFTR variants were transiently transfected in HEK293 cells, including WT CFTR (1480 aa), DelEx23 CFTR (1428 aa), W1282X CFTR (1281 aa), and Ex22 truncated CFTR (1248 aa). HEK293 cell extracts from these transfections were also treated with PNGase F and used as controls for Western blot. As depicted in FIG. 14, the α-CFTR UNC596 antibody (raised against epitope: 1204-1211 aa in Ex22) recognizes the deglycosylated Exon 22 truncated CFTR protein as one band at about 130 kDa.

Del23-27 CFTR protein = target: T2, Del23-27 CFTR protein (Homo sapiens, UniProt P13569); assay: TECC-24 conductance assay in D23-27 (Del23-27) clonal lines
T2 construct: contain the first 1239 amino acids of a WT CFTR; endogenous in cells; host or cells: 16HBE14o- derived Del23-27 clones 2-H07, 3-B09, 3-D01 (CRISPR genomic deletion)
T2 sequence (P13569 with tags, fused parts or gaps): as above
Protocol: Electrophysiology. Clonal lines were seeded at a density of 4.5×10^5 cells cm-2 onto HTS Transwell 24-well filter inserts pre-coated with human collagen type IV. Cells were grown as submerged cultures in MEM (Gibco, 11095) containing 10% FBS and 1% Pen/Strep, and incubated at 37° C. and 5% CO2. Cells were treated from both the basolateral and apical side with fresh medium containing either control (vehicle) or test article for the treatment time indicated in the figure legends. After a total of 7 days, 16HBE cells typically formed electrically tight epithelia with a transepithelial resistance (Rt) of 200-600 Ω·cm2 and CFTR-mediated Cl— equivalent current (Ieq) was determined as described below. Prior to functional (Ieq) studies, MEM was replaced with fresh HEPES-buffered (pH 7.4) solutions (assay buffer). A driving force for chloride ions was established through application of a basolateral to apical chloride ion gradient (see buffer composition below). Cell plates were mounted onto an automated robotic assay platform and equilibrated at ˜36° C. for 90 min. After equilibration, transepithelial voltage (Vt) and resistance (Rt) were monitored at ˜5 min intervals using a 24-channel transepithelial current clamp amplifier (TECC-24, EP Design, Bertem, Belgium). Electrode potential differences for each pair of Ag/AgCl voltage electrodes were also monitored at 5 min intervals by taking voltage measurements from a control plate with matching buffer solutions and 16HBE cells that were left untreated. Ieq was calculated from values of Vt and Rt using Ohm's law after correcting for series resistance and (electrode) voltage offsets unrelated to Vt. Ieq traces are plotted as mean±SD (n=3). The first 4 data points reflect baseline Ieq currents prior to sequential stimulation of CFTR with forskolin (10 μM) and VX-770/ivacaftor (1 μM). The last six data points were recorded in the presence of CFTR inhibitor CFTRinh-172 (20 μM). Agonists/antagonists were pre-diluted to 10-fold concentrations in assay buffer and add-ed to either the basolateral (forskolin) or apical (forskolin, VX-770/ivacaftor, and CFTRinh-172) side of the membrane (assay plates only). CFTR-mediated changes in Ieq, (i.e., delta forskolin, delta VX-770, delta CFTRinh-172, or the area under the curve (AUC) between forskolin and CFTRinh-172 addition) are used as a measure of functional CFTR surface expression or treatment-related functional rescue of mutant CFTR. Assay buffer: CFTR-mediated transepithelial currents were recorded using a Cl— concentration gradient. The basolateral solution contained (mM): 137 NaCl, 4 KCl, 1.8 CaCl2, 1 MgCl2, 10 HEPES and D-Glucose, adjusted to pH 7.4 with NaOH/HCl ([CI-] total: 146.6 mM). The apical solution was matched to the basolateral except for (mM): 137 Na-gluconate replaced 137 NaCl ([Cl—] total: 9.6 mM). To assess the functional consequence of forcing intron 22 ApA usage, D23-27 clonal lines 2-H07, 3-B09, 3-D01 were subjected to 48 hours treatment of vehicle control (0.002% DMSO) or VX-445/VX-661 (3/3 μM), and acute in assay addition of VX-770 (1 μM) and CFTR function was assessed using the transepithelial current clamp (TECC) conductance assay. Potentiators/correctors Trikafta restored the function of the Del23-27 CFTR protein to a significant fraction of WT function, as shown in FIG. 11A. Briefly, transepithelial chloride conductance assay (TECC-24 assay) was conducted in WT 16HBE14o- (treated with vehicle), 16HBEge-F508del (treated with VX-809), and Del23-27 clones (treated with VX-445/661), using sequential treatment of forskolin, VX-770, and CFTR inhibitor 172. In the presence of VX-445/VX-661/VX-770 (Trikafta), Del23-27 CFTR protein function was restored, shown as chloride conductance induced by VX-770 and inhibited by to CFTR (inh)-172. CFTR function can be assayed by comparing the induced chloride conductance area under curve (AUC) of the cell lines utilized. […]

Exon 22 truncated CFTR [2] = target: T1, Exon 22 truncated CFTR; assay: TECC-24 assay of transiently expressed CFTR variants in FRT cells; design: contain the first 1239 amino acids of a WT CFTR; expressed in transfected cells; host or cells: Fischer Rat Thyroid (FRT) cells; settings: FRT cells expressing Exon 22 truncated cDNA; AUC of CFTR-mediated chloride current

| Substance | expression of Exon 22 truncated CFTR protein (Exon 22 truncated CFTR [1]) | Cl— current as WT 16HBE14o- function (FSK only) (Del23-27 CFTR protein; 2-H07, VX-445/VX-661/VX-770 (3/3/3 μM)) [%] | maximum CFTR Cl— current, FSK+VX-770 AUC/min (Del23-27 CFTR protein; 2-H07 clonal line, VX-770 dose escalation, 3.0 μM (+) VX-445/VX-661 (3/3/3 μM)) [μA/cm^2] | Exon 22 truncated CFTR function, of that of wildtype (Exon 22 truncated CFTR [2]) |
| --- | --- | --- | --- | --- |
| aaagcaagcagtgttcaaatct (antisense AAAGCAAGCAGTGTTCAAATCT; all 2'-MOE, all phosphorothioate, methylation of C not given here) [SD10, PS backbone, 2′-MOE] | increased | – | – | – |
| elexacaftor/ivacaftor/tezacaftor [Trikafta] | – | ~42 | 50.6 | about 15% |
